According to patent US8937091B2 (Japan Science and Technology Agency, priority 2009, dated 2015):

How the values were obtained:
[1] = test system: SOCE (store operated calcium entry) in CHO cells; assay: Assay of SOCE (store operated calcium entry)-inhibiting action; type: cell-based, Chinese hamster; conditions: CHO cells, thapsigargin; for inhibition at 10 µM / inhibition at 30 µM / inhibition at 100 µM: Cricetulus griseus, CHO, read-out: SOCE level (percentage of inhibition)
How it was run: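 CHO cells in calcium-free BSS received compound, then 1 μM thapsigargin 2 min later to deplete stores; after 9 min, 2 mM calcium chloride (final) added. Percent inhibition of the rise in intracellular calcium determined at various compound concentrations.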

[2] = test system: IICR (IP3 induced calcium release) in CHO cells; assay: Assay of IICR (IP3 induced calcium release)-inhibiting action; type: cell-based, Chinese hamster; conditions: CHO cells, 10 μM ATP; for inhibition at 10 µM / inhibition at 30 µM / inhibition at 100 µM: Cricetulus griseus, CHO, read-out: IICR level (percentage of inhibition)
How it was run: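 Inhibition (%) of the intracellular calcium increase triggered by 10 μM ATP, measured in CHO cells in BSS with calcium. Compound given 1 min after the buffer exchange and 2 min before ATP; values reported per compound concentration.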

Structure (SMILES) | inhibition at 10 µM ([1]; test compound 10 μmol) [%] | inhibition at 30 µM ([1]; test compound 30 μmol) [%] | inhibition at 100 µM ([1]; test compound 100 μmol) [%] | inhibition at 10 µM ([2]; test compound 10 μmol) [%] | inhibition at 30 µM ([2]; test compound 30 μmol) [%] | inhibition at 100 µM ([2]; test compound 100 μmol) [%] | SOCE level (percentage of inhibition) ([1]; test compound 30 μmol) [%] | SOCE level (percentage of inhibition) ([1]; test compound 100 μmol) [%] | IICR level (percentage of inhibition) ([2]; test compound 10 μmol) [%] | IICR level (percentage of inhibition) ([2]; test compound 30 μmol) [%] | IICR level (percentage of inhibition) ([2]; test compound 100 μmol) [%] | SOCE level (percentage of inhibition) ([1]; test compound 10 μmol) [%]
Cc1ccc(C(=O)CCN(CCO)C(C)(C)C)o1 [Example 240, 2-(N-2-hydroxyethyl-t-butyl)aminoethyl-5-methyl-2-furylketone] | 0 | 0 | 0 | 10 | 30 | 50 |  |  |  |  |  | 
CN(CCC(=O)c1cccnc1)Cc1ccccc1 [Example 248, 2-(N-benzylmethyl)aminoethyl-3-pyridylketone] | 0 | 0 | 0 | 0 | 10 | 80 |  |  |  |  |  | 
Cc1ccc(C(=O)CCNCCO)s1 [Example 306, 2-(N-hydroxyethyl)aminoethyl-5-methyl-2-thienylketone] | 10 | 20 | 30 | 50 | 20 | 30 |  |  |  |  |  | 
C=CC(=O)c1cccc2ccccc12 [Example 68, 1-acryloylnaphthalene] | 0 | 10 | 70 | 80 | 90 | 95 |  |  |  |  |  | 
CC(C)N(CCC(=O)N1CCCCCC1=O)Cc1ccccc1 [Example 200, 3-(N-benzylisopropyl)aminopropionylcaprolactam] | 0 | 0 | 10 | 0 | 0 | 20 |  |  |  |  |  | 
O=C(CCNCCO)c1ccc(Br)s1 [Example 307, 2-(N-hydroxyethyl)aminoethyl-5-bromo-2-thienylketone] | 0 |  |  |  |  |  | 10 | 10 | 30 | 20 | 30 | 
O=C(CCN1CCCCC1)c1ccc(Br)s1 [Example 348, 2-piperidinoethyl-5-bromo-2-thienylketone] | 0 | 0 | 16 | 20 | 0 | 20 |  |  |  |  |  | 
CN1CCN(CCC(=O)c2ccc(Br)s2)CC1 [Example 363, 2-(N-methylpiperadino)ethyl-5-bromo-2-thienylketone] | 0 | 0 | 14 | 0 | 0 | 70 |  |  |  |  |  | 
CC(C)(C)N(CCC(=O)c1ccsc1)Cc1ccccc1 [Example 238, 2-(N-benzyl-t-butyl)aminoethyl-3-thiophenylketone] | 0 | 0 | 0 | 10 | 0 | 0 |  |  |  |  |  | 
CC(C)N(CCC(=O)c1ccc(Cl)cc1)Cc1ccccc1 [Example 310, 2-(N-benzylisopropyl)aminoethyl-4-chloro-phenylketone] | 0 | 0 | 10 | 80 | 80 | 70 |  |  |  |  |  | 
CC(C)(C)N(CCO)CCC(=O)c1cccnc1 [Example 232, 2-(N-t-butyl-2-hydroxyethyl)aminoethyl-3-pyridylketone] | 0 | 0 | 0 | 0 | 10 | 10 |  |  |  |  |  | 
CC(C)N(CCO)CCC(=O)c1ccccn1 [Example 154, 2-(N-hydroxyethylisopropyl)aminoethyl-2-pyridylketone] | 0 | 0 | 0 | 40 | 20 | 80 |  |  |  |  |  | 
CC(C)N(CCC(=O)c1ccc2ccccc2c1)Cc1ccccc1 [Example 66, 2-(N-isopropylbenzyl)aminoethyl-2-naphthylketone] | 0 | 0 | 0 | 10 | 10 | 70 |  |  |  |  |  | 
CCCCN(CCC(=O)c1ccc2ccccc2c1)Cc1ccccc1 [Example 378, 2-(N-butyl-N-benzyl)aminoethyl-2-naphthylketone] | 0 | 0 | 41 | 50 | 24 | 46 |  |  |  |  |  | 
O=C(CCNCCc1ccccc1)c1ccc(Br)s1 [Example 351, 2-phenethylaminoethyl-5-bromo-2-thienylketone] | 0 | 9 | 32 | 30 | 0 | 0 |  |  |  |  |  | 
O=C(CCN(CCO)c1ccccc1)c1ccccc1 [Example 133, 2-(N-phenylhydroxyethyl)aminoethylphenylketone] | 0 | 0 | 0 | 20 | 20 | 30 |  |  |  |  |  | 
CC(C)N(CCO)CCCC(=O)c1ccccc1 [Example 178, 3-(N-isopropylhydroxyethyl)aminopropylphenylketone] | 0 | 0 |  |  |  |  |  |  | 0 | 0 | 0 | 
CC(C)(C)N(CCC(=O)c1cccs1)Cc1ccccc1 [Example 193, 2-(N-t-butylbenzyl)aminoethyl-2-thiophenylketone] | 0 | 0 | 0 | 70 | 95 | 100 |  |  |  |  |  | 
O=C(CCN(CCO)Cc1ccccc1)c1ccsc1 [Example 184, 2-(N-2-hydroxyethylbenzyl)aminoethyl-3-thiophenylketone] | 0 | 0 | 0 | 30 | 50 | 60 |  |  |  |  |  | 
CC(C)N(CCO)CCCC(=O)c1ccccc1 [Example 207, 3-(N-hydroxyethylisopropyl)aminopropylphenylketone] |  |  |  |  |  |  | 0 | 30 | 20 | 20 | 20 | 0
CCN(CCC(=O)c1ccc2c(c1)Cc1ccccc1-2)Cc1ccccc1 [Example 218, 2-(N-benzylethyl)aminoethyl-2-florenylketone] | 20 | 60 | 70 | 10 | 40 | 70 |  |  |  |  |  | 
CC(O)CNCCC(=O)c1cnccn1 (stereo not shown) [Example 281, 2-(N-2-hydroxypropyl)aminoethyl-2-pyrazylketone] |  | 0 | 0 | 20 | 20 | 50 |  |  |  |  |  | 
Cc1cccc2cc(C(=O)CCN(Cc3ccccc3)C(C)C)ccc12 [Example 79, 2-(N-isopropylbenzyl)aminoethyl-5-methyl-2-naphthylketone] | 10 | 30 | 70 | 70 | 90 | 90 |  |  |  |  |  | 
COC(=O)C(CSSCC(NCCC(=O)c1ccc(C)s1)C(=O)OC)NCCC(=O)c1ccc(C)s1 (stereo not shown) [Example 403, N,N-bis(2-(5-methyl-2-thiophenoyl)ethyl)cystinemethylester] | 20 | 40 | 50 | 57 | 17 | 83 |  |  |  |  |  | 
CCN(CCC(=O)c1ccco1)Cc1ccccc1 [Example 142, 2-(N-benzylethyl)aminoethyl-2-furylketone] | 0 | 0 | 0 | 40 | 50 | 80 |  |  |  |  |  | 
O=C(CCN1CCCCC1CO)c1cccs1 (stereo not shown) [Example 127] | 0 | 0 | 10 | 20 | 20 | 50 |  |  |  |  |  | 
CC(C)N(CCO)CCC(=O)c1ccsc1 [Example 56, 2-(hydroxyethylisopropyl)aminoethyl-3-thiophenylketone] | 0 | 0 | 0 | 0 | 0 | 50 |  |  |  |  |  | 
